Patent publication EP4790048A1, “S1PR4 REGULATOR COMPOUND FOR AUTOIMMUNE DISEASE TREATMENT AND APPLICATION THEREOF” (Shengyuan Zetong (Shanghai) Pharmaceutical Co., Ltd, priority 2023, dated 2025)

Legend:
hS1P4 = molecular target: T1, hS1P4 (Homo sapiens, UniProt O95977); assay: Tango β-arrestin recruitment luciferase assay, Tango-hS1P4-CHO; type: cell-based; details: β-arrestin recruitment; 20 h drug treatment; top 45 µM, 9 serial 5-fold dilutions; positive control 25 µM BAF-312; read-out: Tango-hS1P4-CHO EC50
T1 construct: expressed in transfected cells; host or cells: CHO
T1 sequence (O95977 1-384): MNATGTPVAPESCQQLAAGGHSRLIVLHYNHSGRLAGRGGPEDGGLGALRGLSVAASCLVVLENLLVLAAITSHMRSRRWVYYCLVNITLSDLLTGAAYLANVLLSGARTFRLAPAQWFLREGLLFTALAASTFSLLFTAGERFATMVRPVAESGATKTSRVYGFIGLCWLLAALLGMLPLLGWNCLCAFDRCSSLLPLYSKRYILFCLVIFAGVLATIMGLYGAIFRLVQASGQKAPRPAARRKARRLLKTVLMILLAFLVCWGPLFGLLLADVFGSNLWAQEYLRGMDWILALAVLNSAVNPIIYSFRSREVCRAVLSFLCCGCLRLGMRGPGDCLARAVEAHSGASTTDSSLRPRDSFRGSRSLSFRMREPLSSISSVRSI
Description: (§1) The Tango assay detects ligand-dependent GPCR activity through the interaction between β-arrestin and GPCRs. […] The NTEV fragment and the tetracycline transactivator (tTA), an artificial transcription factor, are fused at the C-terminus of the GPCR, while the CTEV fragment is fused to human β-arrestin 2. To enhance the stability of the interaction between GPCR and β-arrestin, a short sequence from the C-terminus of the human arginine vasopressin receptor 2 (V2 tail) is inserted between the GPCR and NTEV. The V2 tail contains multiple GRK phosphorylation sites, which strengthen β-arrestin binding upon phosphorylation. The CTEV fragment carries the stabile point mutation S219P and is truncated at residue 221 to remove the autoinhibitory C-terminal tail. Meanwhile, β-arrestin 2 is truncated to lack the entire C-terminal tail (residues 383-410 deleted). This truncation confers robust stimulus-dependent receptor desensitization, thereby improving detection sensitivity compared with wild-type β-arrestin 2. The UAS reporter construct consists of upstream activating sequence (UAS) elements, a minimal CMV promoter, and a tTA-dependent luciferase reporter gene. Therefore, constructing Tango cells requires the co-transfection of the above three plasmids into host cells. Upon GPCR activation and β-arrestin recruitment, the TEV enzyme at the β-arrestin terminus cleaves tTA from the GPCR C-terminus. The released tTA initiates tTA-dependent luciferase transcription, and compound activity is ultimately determined by measuring luminescence intensity.
(§2) • 1) Tango cell line from was digested from the culture dish respectively. After cell counting, the cells were plated at a density of 10,000 cells per well with […] into a white opaque 96-well plate (add 60 µL D'Hanks to the surrounding wells), and incubated overnight (20 h) in a 5% CO2 incubator at 37°C. The cell density will reach approximately 90% the next day. • 2) After 20 h, 30 µL of serially diluted compound solution was added to each well. The control group was supplemented with 30 µL F12K complete medium. Each group had three replicate wells. • 3) Samples were collected after 20 h of drug treatment.
(§3) (All compounds were tested at a final concentration of 45 µM, with 9 serial dilutions at 5-fold intervals. 1 µM BAF-312 was used as the positive control for S1PR1, and 25 µM BAF-312 was used as the positive control for S1PR4.

hS1P1 = molecular target: T2, hS1P1 (Homo sapiens, UniProt P21453); assay: Tango β-arrestin recruitment luciferase assay, Tango-hS1P1-CHO; type: cell-based; details: β-arrestin recruitment; 20 h drug treatment; top 45 µM, 9 serial 5-fold dilutions; positive control 1 µM BAF-312; read-out: Tango-hS1P1-CHO EC50
T2 construct: expressed in transfected cells; host or cells: CHO
Description: as §1, §2, §3

T2 sequence (P21453 whole entry): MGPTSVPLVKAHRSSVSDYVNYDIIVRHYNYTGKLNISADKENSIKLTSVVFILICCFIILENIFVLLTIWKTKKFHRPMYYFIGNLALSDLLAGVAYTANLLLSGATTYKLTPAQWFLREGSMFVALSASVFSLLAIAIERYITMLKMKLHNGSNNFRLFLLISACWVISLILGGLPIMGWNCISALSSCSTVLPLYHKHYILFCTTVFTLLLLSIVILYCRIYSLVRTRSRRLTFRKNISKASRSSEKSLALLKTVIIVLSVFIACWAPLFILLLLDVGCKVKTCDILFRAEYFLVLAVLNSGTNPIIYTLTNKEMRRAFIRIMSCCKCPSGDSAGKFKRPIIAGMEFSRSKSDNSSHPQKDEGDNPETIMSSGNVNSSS

| SMILES | EC50 (hS1P4) | EC50 (hS1P1) |
| --- | --- | --- |
| C/C(=N\OCc1ccc(C2CCCCC2)cc1)c1ccc(CN2CC(C(=O)O)C2)cc1 [Compound 1] | 2.97 µM | 0.699 µM |
| CCc1cc(/C(C)=N/OCc2ccc(C3CCCCC3)cc2)ccc1CN1CC(C(=O)O)C1 [Compound 3] | 2.16 µM | 0.578 µM |
| C/C(=N\OCc1ccc(C2CCCCC2)c(C(F)(F)F)c1)c1ccc(CN2CCCC(C(=O)O)C2)cc1 (centres unmarked) [Compound 7] | 2.5 µM | 0.508 µM |
| C/C(=N\OCc1ccc(C2CCCCC2)c(C(F)(F)F)c1)c1ccc(CNC2CCCC(C(=O)O)C2)cc1 (centres unmarked) [Compound 9, (E)-3-((4-((1-((4-cyclohexyl-3-(trifluoromethyl)benzyl)oxy)imino)ethyl)benzyl)amino)cyclohexane-1-carboxylic acid] | 2.35 µM | 0.455 µM |
| CCc1cc(/C(C)=N/OCc2ccc(C)c(C(F)(F)F)c2)ccc1CN1CC(C(=O)O)C1 [Compound 14, (E)-1-(2-ethyl-4-(1-((4-methyl-3-(trifluoromethyl)benzyl)oxy)imino)ethyl)azetidine-3-carboxylic acid] | 3.66 µM | 5.99 µM |
| CCc1cc(/C(C)=N/OCc2ccc(-c3ccc(F)cc3)c(C)c2)ccc1CN1CC[C@H](C(=O)O)C1 [Compound 34, (S, E)-1-(2-ethyl-4-(1-(((4'-fluoro-2-methyl-[1,1'-biphenyl]-4-yl)methoxy)imino)ethyl)benzyl)pyrrolidine-3-carboxylic acid] | 0.00241 µM | 0.0869 µM |
| CCc1cc(/C(C)=N/OCc2ccc(-c3ccccc3)c(F)c2)ccc1CN1CC[C@H](C(=O)O)C1 [Compound 35, (S, E)-1-(2-ethyl-4-(1-(((2-fluoro-[1,1'-biphenyl]-4-yl)methoxy)imino)ethyl)benzyl)pyrrolidine-3-carboxylic acid] | 0.00379 µM | 0.104 µM |
| CCc1cc(/C(C)=N/OCc2ccc(-c3ccoc3)c(C)c2)ccc1CN1CC[C@H](C(=O)O)C1 [Compound 36, (S, E)-1-(2-ethyl-4-(1-(((4-(furan-3-yl)-3-methylbenzyl)oxy)imino)ethyl)benzyl)pyrrolidine-3-carboxylic acid] | 0.00167 µM | 0.103 µM |
| CCc1cc(/C(C)=N/OCc2ccc(-c3ccncc3)c(C)c2)ccc1CN1CC[C@H](C(=O)O)C1 [Compound 37, (S, E)-1-(2-ethyl-4-(1-(((3-methyl-4-(pyridin-4-yl)benzyl)oxy)imino)ethyl)benzyl)pyrrolidine-3-carboxylic acid] | 0.0156 µM | 0.644 µM |
| CCc1cc(/C(C)=N/OCc2ccc(-c3cnn(C)c3)cc2)ccc1CN1CC[C@H](C(=O)O)C1 [Compound 55] | 0.269 µM | > 10 µM |
| CCc1cc(/C(C)=N/OCc2ccc(-c3ccc(F)nc3)nc2)ccc1CN1CC[C@H](C(=O)O)C1 [Compound 66, (S, E)-1-(2-ethyl-4-(1-(((6'-fluoro-[2,3'-bipyridin]-5-yl)methoxy)imino)ethyl)benzyl)pyrrolidine-3-carboxylic acid] | – | > 10 µM |
| CCc1cc(/C(C)=N/OCc2ccc(-c3cncnc3)cc2)ccc1CN1CC[C@H](C(=O)O)C1 [Compound 70, (S, E)-1-(2-ethyl-4-(1-(((4-(pyrimidin-5-yl)benzyl)oxy)imino)ethyl)benzyl)pyrrolidine-3-carboxylic acid] | – | > 10 µM |
| CCc1cc(/C(C)=N/OCc2ccc(-c3cncnc3)c(F)c2)ccc1CN1CC[C@H](C(=O)O)C1 [Compound 71, (S, E)-1-(2-ethyl-4-(1-(((3-fluoro-4-(pyrimidin-5-yl)benzyl)oxy)imino)ethyl)benzyl)pyrrolidine-3-carboxylic acid] | – | > 10 µM |
| CCc1cc(/C(C)=N/OCc2ccc(-c3cnsc3)cc2)ccc1CN1CC[C@H](C(=O)O)C1 [Compound 74] | – | > 10 µM |
| CCc1cc(/C(C)=N/OCc2ccc(-c3ccns3)cc2)ccc1CN1CC[C@H](C(=O)O)C1 [Compound 75] | – | > 10 µM |
| CCc1cc(/C(C)=N/OCc2ccc(-c3cnc(F)nc3)cc2F)ccc1CN1CC[C@H](C(=O)O)C1 [Compound 79, (S, E)-1-(2-ethyl-4-(1-(((2-fluoro-4-(2-fluoropyrimidin-5-yl)benzyl)oxy)imino)ethyl)benzyl)pyrrolidine-3-carboxylic acid] | – | > 10 µM |
| CCc1cc(/C(C)=N/OCc2ccc(-c3cncnc3)c(C)c2)ccc1CN1CCC(C(=O)O)CC1 [Compound 82, (E)-1-(2-ethyl-4-(1-(((3-methyl-4-(pyrimidin-5-yl)benzyl)oxy)imino)ethyl)benzyl)piperidine-4-carboxylic acid] | 0.0427 ± 0.00228 µM | > 10 µM |
| CCc1cc(/C(C)=N/OCc2ccc(-c3cncnc3C)c(C)c2)ccc1CN1CC[C@H](C(=O)O)C1 [Compound 83, (S, E)-1-(2-ethyl-4-(1-(((3-methyl-4-(4-methylpyrimidin-5-yl)benzyl)oxy)imino)ethyl)benzyl)pyrrolidine-3-carboxylic acid] | – | > 10 µM |
| CCc1cc(/C(C)=N/OCc2ccc(-c3ccnnc3)c(C)c2)ccc1CN1CC[C@H](C(=O)O)C1 [Compound 84, (S, E)-1-(2-ethyl-4-(1-(((3-methyl-4-(pyridazin-4-yl)benzyl)oxy)imino)ethyl)benzyl)pyrrolidine-3-carboxylic acid] | – | > 10 µM |
| CCc1cc(/C(C)=N/OCc2c(F)cc(-c3ccc(F)nc3)cc2F)ccc1CN1CC[C@H](C(=O)O)C1 [Compound 86, (S, E)-1-(2-ethyl-4-(1-(((2,6-difluoro-4-(6-fluoropyridin-3-yl)benzyl)oxy)imino)ethyl)benzyl)pyrrolidine-3-carboxylic acid] | – | > 10 µM |
| CCc1cc(/C(C)=N/OCc2ccc(-c3cnc(F)cn3)cc2F)ccc1CN1CC[C@H](C(=O)O)C1 [Compound 87, (S, E)-1-(2-ethyl-4-(1-(((2-fluoro-4-(5-fluoropyrazin-2-yl)benzyl)oxy)imino)ethyl)benzyl)pyrrolidine-3-carboxylic acid] | 0.0174 ± 0.00039 µM | > 10 µM |
| CCc1cc(/C(C)=N/OCc2ccc(-c3cnc(F)cn3)c(C)c2)ccc1CN1CCCC(C(=O)O)C1 (centres unmarked) [Compound 92, (E)-1-(2-ethyl-4-(1-(((3-methyl-4-(5-fluoropyrazin-2-yl)-benzyl)oxy)imino)ethyl)benzyl)piperidine-3-carboxylic acid] | > 10 µM | > 10 µM |
